Like-named read-outs stand apart in the source and are kept apart here.
Key:
[1] = system: ERK1/2; details: downstream indicator of Ras activation, cited from earlier work
[2] = system: normal human monocytes; experiment: MTS cell viability assay, normal human monocytes; format: cell-based; details: 24 hours, serum free media
Protocol: In another embodiment normal human monocytes were treated with different concentration of Iripallidal in serum free media for 24 hours and cell viability was assessed using the MTS assay. Values were expressed as a percentage relative to those obtained in controls.
Whole blood (5 ml) was drawn from normal human volunteers and mononuclear cells were separated by Histopaque density gradient centrifugation. Briefly, blood was diluted twice with phosphate buffered saline (PBS) and layered over Histopaque (Sigma, Mo., USA) and centrifuged at 1500 rpm for 20 mins at room temperature. Peripheral blood mononuclear cells (PBMC) were collected carefully at the interface of Histopaque and plasma, diluted five times with PBS and centrifuged at 1500 rpm for 10 mins. PBMC thus pelleted were washed twice with PBS and seeded onto glass petri dishes and allowed to adhere for 3 hrs. Non adherent cells were removed by gentle washing with PBS twice and the adherent monocytes were used in MTS assay.
(§1) Cell viability was assessed using the [3-(4,5-dimethylthiazol-2-yl)-5-(3-carboxymethoxy-phenyl)-2-(4-sulfophenyl)-2H-tetrazolium, inner salt] (MTS) as described earlier. […] After 4 hours of incubation the absorbance reflecting reduction of MTS by viable cells was determined at 490 nm. Values were expressed as a percentage relative to those obtained in controls.

[3] = target: protein kinase C alpha (Homo sapiens, UniProt P17252); details: cited from earlier work
[4] = system: U87MG, A172, LN229 and T98G cells; experiment: MTS cell viability assay, glioma cell lines; format: cell-based, human; details: 24 hours, serum free media, in vitro
Protocol: In another embodiment GBM cell lines U87MG, A172, T98G, and LN229 were treated with different concentration of Iripallidal (in Dimethyl sulphoxide, DMSO) in serum free media for 24 hours and cell viability was assessed using the [3-(4,5-dimethylthiazol-2-yl)-5-(3-carboxymethoxy-phenyl)-2-(4-sulfophenyl)-2H-tetrazolium, inner salt] (MTS) assay. Values were expressed as percent cell viability relative to control.
(§2) Glioblastoma cell lines U87MG, A172, T98G, and LN229; breast cancer cell line MCF7, cervical cancer cell line HeLa, hepatocellular carcinoma cell line HepG2, acute myeloid leukemia THP1, colon carcinoma cell line HT-29 and acute myeloid leukemic cell line THP1 were obtained from American Type Culture Collection and cultured in DMEM supplemented with 10% fetal bovine serum. On attaining semi-confluence, cells were switched to serum free media and after 12 hours, cells were treated with different concentration of Iripallidal (in DMSO) in serum free media for 24 hours. Following treatment, the cells were processed for Western blot analysis. […]
as §1, with “salt]” for “salt] (MTS) as described earlier.”

[5] = target: T1, RasGRP3 (Homo sapiens, UniProt Q8IV61); details: cited from earlier work
T1 sequence (Q8IV61 1-690): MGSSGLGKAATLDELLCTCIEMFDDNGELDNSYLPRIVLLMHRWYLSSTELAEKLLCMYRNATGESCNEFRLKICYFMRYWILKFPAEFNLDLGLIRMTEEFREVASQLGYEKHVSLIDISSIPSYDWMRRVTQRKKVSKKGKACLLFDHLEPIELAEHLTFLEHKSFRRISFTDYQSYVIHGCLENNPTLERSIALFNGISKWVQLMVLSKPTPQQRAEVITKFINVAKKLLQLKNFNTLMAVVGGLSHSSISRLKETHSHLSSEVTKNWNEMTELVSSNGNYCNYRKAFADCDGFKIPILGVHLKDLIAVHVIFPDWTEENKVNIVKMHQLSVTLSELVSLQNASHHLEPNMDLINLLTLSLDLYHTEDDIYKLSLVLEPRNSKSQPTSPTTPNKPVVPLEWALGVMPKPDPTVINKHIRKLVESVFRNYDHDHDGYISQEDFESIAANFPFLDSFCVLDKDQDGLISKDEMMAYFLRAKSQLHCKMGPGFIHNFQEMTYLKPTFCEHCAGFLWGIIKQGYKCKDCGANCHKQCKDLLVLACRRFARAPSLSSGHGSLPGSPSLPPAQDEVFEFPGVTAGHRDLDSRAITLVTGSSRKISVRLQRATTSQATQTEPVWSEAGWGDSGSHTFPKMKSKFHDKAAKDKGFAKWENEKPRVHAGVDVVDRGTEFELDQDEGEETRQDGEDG

[6] = system: MCF-7, HeLa, HepG2, THP1, HT-29 cells; experiment: MTS cell viability assay, breast, cervical, hepatocellular, myeloid leukemia and colon cancer cell lines; format: cell-based, human
Protocol: In another embodiment colon cancer cell line HT29, breast cancer line MCF-7, cervical cancer cell line HeLa, hepatocellular carcinoma cell line HepG2 and acute myeloid leukemic cell line THP1 were treated with different concentration of Iripallidal (in Dimethyl sulphoxide, DMSO) in serum free media for 24 hours and cell viability was assessed using the MTS assay. Values were expressed as a percentage relative to those obtained in controls.
as §2, with “hours.” for “hours. Following treatment, the cells were processed for Western blot analysis.”
as §1, with “salt]” for “salt] (MTS) as described earlier.”

[7] = system: Ras; experiment: Western blot analysis of Ras expression in glioma cells; format: cell-based, human; details: GBM cell lines (A172, U87MG); Iripallidal 20 μM
Protocol: In another embodiment, protein isolated from glioma cells were treated with Iripallidal and electrophoresed on 6% to 10% polyacrylamide gel, Western blotting was performed and expression of Ras determined as described previously.
Glioblastoma cell lines U87MG, A172, T98G, and LN229; breast cancer cell line MCF7, cervical cancer cell line HeLa, hepatocellular carcinoma cell line HepG2, acute myeloid leukemia THP1, colon carcinoma cell line HT-29 and acute myeloid leukemic cell line THP1 were obtained from American Type Culture Collection and cultured in DMEM supplemented with 10% fetal bovine serum. On attaining semi-confluence, cells were switched to serum free media and after 12 hours, cells were treated with different concentration of Iripallidal (in DMSO) in serum free media for 24 hours. Following treatment, the cells were processed for Western blot analysis. DMSO treated cells were used as controls.
Protein from whole cell lysates were isolated as described previously. Twenty to fifty μg of protein isolated from cells treated with Iripallidal was electrophoresed on 6% to 10% polyacrylamide gel. Western blotting was performed and Ras expression was determined as described. The blots were stripped and reprobed with anti-β-actin to determine equivalent loading.

[8] = system: panel of 60 human cancer cell lines; details: NCI 60 cell line screen; cited from earlier work
[9] = system: Ras; experiment: Ras activity (Ras-GTP pull-down with Raf-1 Ras binding domain) in glioma cells; format: cell-based, human; details: Iripallidal 20 μM, compared to the control
Protocol: In another embodiment the Ras activity was performed using a commercially available kit from Upstate Biotechnology (Temecula, Calif., USA). Briefly, glioma cell lines (2×10^6) treated with Iripallidal were lysed and the cleared lysates were incubated with bead-bound RAS binding domain of Raf-1 protein to precipitate Ras-GTP. The precipitates were subjected to SDS-PAGE and Western blotting.
Effect of Iripallidal on the level of GTP-bound Ras. The level of Ras-GTP in protein extracts of control and Iripallidal treated glioma cells was determined by the ability of Ras-GTP to bind to a specific protein domain of Raf in the form of a GST-fusion protein. […] IR1 denotes Iripallidal.

Row | SMILES | phosphorylation of ERK1/2 [1] | phosphorylation of ERK1/2 ([1]; listed as NSC 631939) | viability of normal human monocytes [2] | binding to protein kinase C alpha [3] | viability of glioblastoma cell lines [4] | binding to RasGRP3 [5] | binding to RasGRP3 ([5]; listed as NSC 631939) | proliferation of breast, colon, cervical, liver and myeloid cancer cells ([6]; 24 hours, serum free media) | reduction of proliferation of cancer cell lines ([6]; cancer cell lines, not specified further) | Ras levels [7] | anti-proliferative activity [8] | Ras activity (Ras-GTP level) [9]
1 | CC1=CC[C@H](C)C(C)(C)C1/C=C/C(C)=C/CC[C@@]1(CO)[C@H](CCCO)/C(=C(/C)C=O)CC[C@]1(C)O (single isomer, unassigned; (-)) [Iripallidal] | induces phosphorylation of ERK1/2 in a Ras dependent manner | induced phosphorylation of ERK1/2 | does not effect the viability | bound | decreased the viability of glioblastoma cell lines significantly | binds to RasGRP3 | bound | inhibited the proliferation | 50-70% | elevated both Ras levels | micromolar to nanomolar range | An increase Ras activity was observed
2 | C=C(/C=C/C=C(/CCC=C(C)C)COC(C)=O)[C@@H]1CC[C@]2([C@H](CCCO)/C(=C(/C)C=O)CC[C@]2(C)O)[C@@H]1O [NSC 631941, reference compound] | induced phosphorylation of ERK1/2 |  |  | bound |  | bound |  |  |  |  |  | 
